Patent publication US20110294794A1, “TREATMENT OF PROTEINOPATHIES USING A FARNESYL TRANSFERASE INHIBITOR” (Link Medicine Corporation, priority 2008, published 2011)
Entries after “also recorded” stand apart in the source; their conditions may differ.

Experiments:
Atg1 = test: mRNA levels of autophagy-related genes (Atg1) in SH-SY5Y cells; assay type: cell-based, human; details: 100 nM (FIG. 8d)
Procedure: Quantitative real-time PCR: Gene expression profiles were done by qPCR on series of known autophagy genes. RNA was extracted with Tri-reagent (Sigma), and cDNAs generated using iScript (Biorad). qPCR analysis was carried out in a 96 well plate using an iCycler (BioRad, Hercules, Calif.), and iQ SYBR Green Supermix (Biorad) according to the manufacturer's specifications.
The mechanism of autophagy stimulation by LNK-754-TS appears distinct from that of the drug rapamycin. Rapamycin is a well-characterized autophagy stimulator that acts through inhibition of mTOR, a kinase involved in nutrient signaling and regulation of cell growth and survival. […] To further contrast the mechanism of autophagy stimulation by LNK-754-TS to that of rapamycin, a collection of mRNA transcripts of autophagy proteins were measured (FIG. 8d). Selected mRNAs from untreated SH-SY5Y cells were compared to mRNAs from cells treated with LNK-754-TS (100 nM), tipifarnib (100 nM), or rapamycin (1 μM).

TAU441 transgenic mice = test: Porsolt forced swim task in TAU441 transgenic mice; assay type: in vivo, mouse
Description: Tests relevant to depression-like behaviors in rodents are primarily stress-induced reductions in avoidance or escape, termed behavioral despair. One of the most widely used animal tests for depression is the Porsolt forced swim task (Porsolt et al., Arch. Int. Pharmacodyn. Ther. 229(2):327-36, 1977; Porsolt et al., Eur. J. Pharmacol. 47(4):379-91, 1978). This study was designed to evaluate the effects of treatment with LNK-754 on behavior of TAU441 transgenic mice. At start of the treatment, the animals were 5 months old. Untreated non-transgenic animals of the same age were tested and sacrificed serving as the baseline group. Mice received vehicle or LNK-754-TS at a dose of 0.09 mg per kg, 7 days a week for 90 days. In the last week of the treatment period and before sacrifice, mice were evaluated using the Porsolt forced swim task (FIG. 10B).

[1] = 0.09 mg/kg once every 24 hr, 90 days

Compound: C#Cc1cccc(-c2cc(=O)n(C)c3ccc([C@](O)(c4ccc(Cl)cc4)c4cncn4C)cc23)c1 [LNK-754-TS, (R)-6-[(4-chlorophenyl)-hydroxyl-(1-methyl-1-H-imidazol-5-yl)-methyl]-4-(3-ethynylphenyl)-1-methyl-2-(1H)-quinonlinone (2S,3S)-dihydroxybutanedioate]
- mRNA levels of a set of autophagy-related genes (Atg1): unaffected
- depressed phenotype (TAU441 transgenic mice; 0.09 mg/kg once every 24 hours): significantly ameliorated
- floating behavior vs. vehicle (TAU441 transgenic mice; [1]): significantly less; also recorded: decreasing; also recorded: decreased
- forced swim behavior compared with non-transgenic mice (TAU441 transgenic mice; [1]): behaved similar to non-transgenic mice; also recorded: behaved similarly to non-tg mice; also recorded: levels equivalent to that seen in non-transgenic mice
- struggling behavior vs. vehicle (TAU441 transgenic mice; [1]): higher percentage; also recorded: increasing; also recorded: significantly increased
